For test [1], the system named is OSM-stimulated IL-6 secretion from U343 cells. The test is described as follows: OSM-induced IL-6 release from U343 glioma cells (IL-6 ELISA of conditioned medium). Conditions: for Remaining IL-6 expression [% of control]: 100 ng/ml OSM, 24 h, IL-6 release of vehicle-treated cells set to 100% (n = 2), mean ± SD; for Effect on OSM-induced IL-6 secretion (in words): OSM-stimulated. Format: cell-based, human. As for the experimental part: The human glioma cell line U343 [34] was maintained in DMEM containing 10% fetal bovine serum and 60 μg/ml gentamycin (Invitrogen, Darmstadt, Germany) at 37°C in a 10% CO2 atmosphere.
(§1) Measurements of IL-6 in conditioned medium and murine plasma samples were done by means of human- or murine-specific IL-6 Cytoset kits (Invitrogen, Darmstadt, Germany) according to manufacturer's protocols.
Using the characterized cell culture model of OSM-induced IL-6 expression, our in-house compound libraries were screened for potent IL-6 expression inhibitors. Human U343 glioma cells were treated with 100 ng/ml OSM for 24 h. The analysis by IL-6 ELISA identified a set of structurally related compounds as potent inhibitors of IL-6 secretion (Table 1). […] HAKs with proline in position P1 are known from the literature as inhibitors of prolyl endopeptidase (PREP), a proline-specific serine protease.

Test [2] addresses T1, human recombinant prolyl endopeptidase (PREP) (Homo sapiens, UniProt P48147).
T1 construct: made in house
T1 sequence (P48147 1-710): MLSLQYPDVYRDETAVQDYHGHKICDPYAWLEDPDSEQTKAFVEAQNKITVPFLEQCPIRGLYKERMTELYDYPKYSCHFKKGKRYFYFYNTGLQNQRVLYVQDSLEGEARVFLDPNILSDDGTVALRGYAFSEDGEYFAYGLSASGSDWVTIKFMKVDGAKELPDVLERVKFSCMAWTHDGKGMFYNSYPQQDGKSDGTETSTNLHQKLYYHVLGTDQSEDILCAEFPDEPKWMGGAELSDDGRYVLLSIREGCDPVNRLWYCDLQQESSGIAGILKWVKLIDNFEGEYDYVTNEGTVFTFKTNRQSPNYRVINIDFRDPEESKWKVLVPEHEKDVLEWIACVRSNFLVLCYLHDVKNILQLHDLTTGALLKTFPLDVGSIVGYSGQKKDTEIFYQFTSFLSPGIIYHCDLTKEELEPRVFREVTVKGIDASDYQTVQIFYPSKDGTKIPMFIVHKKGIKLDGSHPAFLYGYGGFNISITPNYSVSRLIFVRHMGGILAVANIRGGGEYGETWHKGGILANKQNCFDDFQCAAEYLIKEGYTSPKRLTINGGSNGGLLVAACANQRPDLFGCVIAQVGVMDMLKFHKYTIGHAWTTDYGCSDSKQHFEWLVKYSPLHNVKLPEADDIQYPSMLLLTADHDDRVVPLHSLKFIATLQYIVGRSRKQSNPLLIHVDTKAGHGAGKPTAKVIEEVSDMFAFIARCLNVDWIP
Description: PREP enzymatic activity assay (Z-Gly-Pro-pNA, photometric). Format: biochemical. The conditions noted are these: for Ki: recombinant PREP, Z-Gly-Pro-pNA 62.5/125/250 μM, pH 7.6, 30°C, competitive fit. As for the experimental part: The activity of human recombinant prolyl endopeptidase (PREP) was determined photometrically using the substrate Z-Gly-Pro-pNA (Bachem, Weil am Rhein, Germany) usually at a concentration of 150 μM. As assay buffer 50 mM HEPES buffer pH 7.6, containing 200 mM NaCl, 1 mM EDTA, and 1 mM dithiothreitol was used. Release of pNA was monitored continuously at 405 nm for 15 min at 30°C in a 96-well plate reader (Spectrafluor, Tecan, Crailsheim, Germany). PREP activity was calculated from the slope of the time product curve with the help of a pNA standard. For determination of Ki values three different substrate concentrations (62.5 μM; 125 μM and 250 μM) and seven different inhibitor concentrations were analyzed. Substrate concentrations were selected to be at the Km value of Z-Gly-Pro-pNA (125 μM) as well as half and twice the Km. Data were fitted by non-linear regression to the competitive inhibitor equation (Graphit 5.0, Erithacus software).

Test [3] relates to LPS-induced IL-6 release in primary mouse astrocytes. Description: LPS-induced IL-6 release in primary mouse astrocytes (ELISA). The test is classed as cell-based. Conditions: 1 μg/ml LPS, 20 μM compound, 24 h. On the procedure:
(§2) According to Löffler, astrocyte-rich primary cell cultures were started with brains of newborn mice and rats and were maintained in Dulbecco's modified Eagle's medium (DMEM) for 33 days at 37°C in a humified atmosphere with 95% air/5% CO2.
as §1
(§3) Figure 5 Suppression of LPS-induced IL-6 release in primary murine astrocytes by selected HAK compounds. […] Astrocytes derived from newborn mice and rats were cultivated for 33 days followed by stimulation with 1 μg/ml LPS and treatment with compounds HAK-2 and HAK-5 (20 μM). After 24 hours conditioned media were analyzed with IL-6 specific ELISA. Data (mean ± SD) were obtained from experiments carried out in quadruplicate and statistical analysis was performed using the paired t test. Amount of IL-6 in LPS-treated control sample was set to 100%. ns, not significant; **p < 0.01; ***p < 0.001.
(§4) Primary murine astrocytes stimulated with 1 μg/ml LPS were co-treated with compounds HAK-2 and HAK-5 at a concentration of 20 μM each for 24 h. The observed effect of compounds HAK-2 and HAK-5 on LPS stimulation was similar to that of OSM-induced IL-6 expression in human U343 glioma cells (Figures 5A and 5B). […]

Test [4] concerns LPS-induced IL-6 release in primary rat astrocytes. Description: LPS-induced IL-6 release in primary rat astrocytes (ELISA). Format: cell-based. The conditions noted are these: 1 μg/ml LPS, 20 μM compound, 24 h. On the procedure:
as §2, §1, §3, §4

The subject of test [5] is STAT3 phosphorylation at serine 727 (pSTAT3^S727) in U343 cells. Description: OSM-induced STAT3 / Erk1 phosphorylation in U343 cells (western blot, immunocytochemistry). The conditions noted are these: OSM 100 ng/ml, 20 μM compound, 6 h. The test is classed as cell-based, human. On the procedure: Human U343 cells were lysed with cell lysis buffer (Invitrogen, Darmstadt, Germany) supplemented with 0.2 mg/ml sodium orthovanadate (Sigma, Taufkirchen, Germany), protease inhibitor mix complete mini (Roche, Mannheim, Germany) and 1 mM AEBSF (Sigma, Taufkirchen, Germany) for 30 min on ice. Lysates were centrifuged for 15 min at 15,000 × g and 4°C. Protein content in supernatants was quantified by Bradford assay (Sigma, Taufkirchen, Germany) according to the manufacturer's protocol and stored at -20°C.
Western blotting was performed with 30 μg protein of whole-cell extracts, mixed with 4 x SDS sample loading buffer (Invitrogen, Darmstadt, Germany) and denatured for 10 min at 85°C. […]
Human U343 cells (1 × 10^5 cells/well) were grown on cover slips in 24-well plates (Greiner, Frickenhausen, Germany) for 24 h. […] Finally, cover slips were mounted on microscope slides and approximately 250 cells/sample were evaluated densitometrically by fluorescence microscopy (Zeiss, Jena, Germany) and MetaMorph Image Analysis Software (Universal Imaging Corporation, USA). […]
Figure 7 Effect of selected HAK compounds on OSM-induced STAT3 phosphorylation at serine 727 in U343 cells. […] For western blot analysis (A) 0.25 × 10^6 cells co-treated for 6 h with OSM (100 ng/ml) and selected HAK compounds (20 μM) were extracted and analyzed as described in experimental procedures. […]

The test system of test [6] is OSM-induced IL-6 mRNA expression. On the set-up: method as in PMID 10899931. Conditions: cited from earlier work.

Bounds are passed on as bounds.

Take `O=C(N[C@@H](Cc1ccccc1)C(=O)N1CCC[C@H]1C(=O)c1nc2ccccc2s1)OCc1ccccc1` [HAK-1, Z-Phe-Pro-BTh]: in test [1], the “Remaining IL-6 expression [% of control]” value is listed as 15.9 ± 1.87 % of control and the “Effect on OSM-induced IL-6 secretion (in words)” value (“Effect … (in words)” for short) is given as “significantly reduced”. In test [2], the Ki came to 4.6 nM.
Turning to `CC(C)C[C@H](NC(=O)[C@H](Cc1ccccc1)NC(=O)OCc1ccccc1)C(=O)c1nc2ccccc2s1` [HAK-3, Z-Phe-Leu-BTh], in test [1], the “Remaining IL-6 expression [% of control]” value is 22.1 ±5.91 % of control and the “Effect … (in words)” value is “significantly reduced”. Moreover, in test [2], the “PREP inhibition (in words)” value was “poor PREP inhibitors” and the Ki is greater than 1000 nM.
The like results for `C[C@H](NC(=O)[C@H](Cc1ccccc1)NC(=O)OCc1ccccc1)C(=O)c1nc2ccccc2s1` [HAK-4, Z-Phe-Ala-BTh] were, in that order, 35.1 ± 6.75 % of control, “significantly reduced”, “poor PREP inhibitors” and greater than 10000 nM.
Turning to `O=C(N[C@@H](Cc1ccccc1)C(=O)N1CCC[C@H]1C(=O)c1nccs1)OCc1ccccc1` [HAK-5, Z-Phe-Pro-Th], the “Reduction of LPS-induced IL-6 expression” value in test [3] was found to be 60%. In addition, the “Reduction of LPS-induced IL-6 expression” value in test [4] is listed as 50%. Besides, in test [1], the “Remaining IL-6 expression [% of control]” value is 35.2 ± 12.92 % of control and the “Effect … (in words)” value was “significantly reduced”. The Ki in test [2] worked out at 0.11 nM.
As for `NCCCC[C@H](NC(=O)OCc1ccccc1)C(=O)N1CCC[C@H]1C(=O)c1nc2ccccc2s1` [HAK-6, Z-Lys-Pro-BTh], in test [1], the “Remaining IL-6 expression [% of control]” value was 38.8 ± 5.26 % of control and the “Effect … (in words)” value is listed as “significantly reduced”. The Ki in test [2] came out at 4.1 nM.
For the compound `O=C(O)C[C@H](NC(=O)OCc1ccccc1)C(=O)N1CCC[C@H]1C(=O)c1nc2ccccc2s1` [HAK-7, Z-Asp-Pro-BTh], in test [1], the “Remaining IL-6 expression [% of control]” value is recorded as 52.8 ± 3.91 % of control and the “Effect … (in words)” value is “significantly reduced”. The Ki in test [2] is 12 nM.
For `N=C(N)NCCC[C@H](NC(=O)OCc1ccccc1)C(=O)N1CCC[C@H]1C(=O)c1nc2ccccc2s1` [HAK-8, Z-Arg-Pro-BTh], in test [1], the “Remaining IL-6 expression [% of control]” value is listed as 96.8 ± 10.69 % of control and the “Effect … (in words)” value is reported as “does not reduce”. Moreover, in test [2], the “PREP inhibition (in words)” value was “potent PREP inhibitor” and the inhibition constant (Ki) was 3.2 nM. Besides, in test [5], the “Effect on pSTAT3^S727 phosphorylation (western blot)” value is listed as “significantly lower effect” and the “Suppression of OSM-mediated phosphorylation of pSTAT3^S727 (immunocytochemistry, densitometry)” value is “did not”.
Take `O=C(NC(Cc1ccccc1)C(=O)NC(Cc1ccccc1)C(=O)c1nc2ccccc2s1)OCc1ccccc1` (stereo not drawn) [HAK-9, Z-Phe-Phe-BTh]: in test [1], the “Remaining IL-6 expression [% of control]” value is listed as 182.8 ± 25.41 % of control. For the same compound, in test [2], the Ki was greater than 10000 nM.
Turning to `COc1ccc(C[C@H](N)C(=O)N[C@H]2[C@@H](O)[C@H](n3cnc4c(N(C)C)ncnc43)O[C@@H]2CO)cc1` [puromycin], in test [6], the “Effect on first OSM-induced IL-6 mRNA peak” value is “no effect” and the “Effect on second OSM-induced IL-6 expression peak” value was “completely abrogated”.
